≈ marks a conversion by molar mass, not a printed value. Where “and” joins values, the source holds several entries; their conditions need not be identical. Identical values can stand only once. Counter-ions that a name gives are not always drawn. Like-named read-outs stand apart in the source and are kept apart here.
Assays:
pH of aqueous solution = assay type: physicochemical
Solubility = assay type: physicochemical
[1] = total mean values, especially during the first 3 hours
Method: The blood levels were then determined after 0.5, 1, 1.5, 2, 3, 4 and 5 hours.

[2] = system: patients with degenerative osteoarticular affections; assay: Clinical trial, i.m. 500 mg/day, efficacy in degenerative osteoarticular diseases; assay type: in vivo, human
From the text: In a subsequent clinical trial, 33 human subjects were used with an average age of 73.8±6.8, the minimum age being 61 and the maximum age 88; 7 of the subjects were males and the remaining 26 were female.
These subjects presented osteoarticular diseases of a chronic or subacute type, in which, during the period of observation, an evolutive flare-up of a pre-existing mono- or polyarticular arthrosic process was verified, as well as the appearance ex novo of an arthralgic picture with functional impotence of the osteoarticular segments which previously appeared to be undamaged.
In these cases, the parenteral route of administration was used so as to obtain, in view of the watersoluble characteristics of the test material, a more rapid symptomatic control. Furthermore, this method of administration permits a ready control of any differences in gastric tolerance as compared with the oral administration route, which is more commonly used.
The test substance was injected in the morning between 8 and 8.30 a.m. Before starting the therapy, midway through it and immediately after it, the following parameters were controlled in order to ascertain how effective the treatment had been: Lansbury's dynamometer (the values of muscular strength were expressed in kg.); the range of articular flexion and extension (the basal finding was expressed conventionally with the notations "+" to "+++," the successive findings being assessed as "unchanged," "increased" or "decreased," compared with the pre-treatment findings; subjective algesic symptomatology, the criteria of evaluation being similar to those adopted for determining the range of articular flexion and extension; finger tip-floor distance test, obtained by measuring the distance between the tips of the fingers and the floor when the subject bends forward; and morning stiffness, this being the time taken for the disappearance of stiffness on awakening.
Thus, for the evaluation of the test substance, it was thus possible to have 3 quantitative parameters (morning stiffness, Lansbury's index and finger tip-floor distance) and 2 semiquantitative parameters (pain symptomatology and flexo-extension strength). This is sufficient to obtain a reliable therapeutic profile in the test subjects, where the subjective element plays a predominant role in determining the clinical picture, as well as the therapeutic response.
The numerical data obtained were analysed statistically by means of the calculation of the Student "t" test on the mean values found before and after treatment.

occult blood in faeces = assay: Occult blood in faeces (benzidine test); assay type: in vivo, human
Method: In cases with a history of gastroenteric disorders, even if not drug-dependent, the faeces were tested for the presence of occult blood, using the benzidine test.

gastro-intestinal mucosa = settings: cited from earlier work
[3] = system: pain threshold in the inflamed paw (carrageenin oedema); assay: Pain threshold under pressure of the inflamed (carrageenin) rat paw (analgesic action); settings: Table 3, 100 mg/kg p.o. (lysine salt: 60 as active substance)
Method: At intervals after the treatment, the size of the treated paw and its sensitivity to pain under pressure were evaluated.

[4] = system: carrageenin oedema, inflamed paw; assay: Carrageenin oedema of the rat paw (anti-inflammatory action, paw size/volume); assay type: in vivo, male Wistar rats; settings: Table 2, 100 mg/kg p.o. (lysine salt: 60 as active substance)
Stability = settings: salt or its aqueous solution
[5] = of 18 cases with major initial involvement
[6] = end of experiment, of 14 positive before treatment

In the case of `CC(C)Cc1ccc(C(C)C(=O)O)cc1` (racemic) [Example 1], the “pH of aqueous solution” value (pH of aqueous solution) is reported as “substantially neutral pH”, the solubility (Solubility; in water) is reported as ~400 mg/mL (≈ 1940 mM) and the “Blood levels compared with oral sodium salt” value [1] is reported as “higher blood levels are always obtained, especially during the first 3 hours, than after the oral administration of the sodium salt”. For the same compound, the “Cases with increase of flexo-extension strength” value ([2]; 33 patients, i.m. 500 mg/day) was 36.3%, the “Cases with spontaneous pain reduced following treatment” value ([2]; 33 patients, i.m. 500 mg/day) was 27 cases and the “Cases with spontaneous pain reduced following treatment (%)” value ([2]; 33 patients, i.m. 500 mg/day) was 81.8%. The “Morning stiffness, mean after treatment” value ([2]; Table 7, after i.m. 500 mg/day, s.d. ± 8.2) was 18.93 min, the “Morning stiffness, mean before treatment” value ([2]; Table 7, before treatment (baseline), s.d. ± 6.62) was 20.17 min and the “Lansbury test, mean before treatment” value ([2]; Table 7, before treatment (baseline), s.d. ± 9.19) was 30.96 kg. For the same compound, the “Fingertip-floor distance, mean before treatment” value ([2]; Table 7, before treatment (baseline), s.d. ± 12.4) was 33.17 cm, the “Fingertip-floor distance, after treatment” value ([2]; Table 7, i.m. 500 mg/day, individual patients in order of case no. (cases 7, 8, 9, 14, 27-31, 33 not given), listed as lysine isobutylphenyl propionate) was 45 cm and 40 cm and 30 cm and 28 cm and 15 cm and 11 cm and 6 cm and 20 cm and 24 cm and 48 cm and 38 cm and 18 cm and 46 cm and 35 cm and the “Morning stiffness, after treatment” value ([2]; Table 7, i.m. 500 mg/day, individual patients in order of case no. (cases 8, 9, 14, 26 not given), listed as lysine isobutylphenyl propionate) was 30 min and 10 min and 0 min and 8 min and 2 min and 12 min and 25 min and 15 min and 11 min and 5 min and 9 min and 23 min and 18 min and 22 min and 20 min. For the same compound, the Radiologic changes ([2]; after treatment vs before) was “no radiologic changes”, the “Lansbury test, pre- vs post-treatment mean values” ([2]; i.m. 500 mg/day) was “similar” and the “Overall safety and clinical efficacy” value ([2]; i.m. 500 mg/day) was “safe and clinically effective”. The “P, difference between pre- and post-treatment duration of morning stiffness” value ([2]; i.m. 500 mg/day, Student t test) was < 0.01, the “Patients with "excellent" effect” value ([2]; i.m. 500 mg/day, of 33) was 25 patients and the “Patients with "fair" result” value ([2]; i.m. 500 mg/day, of 33) was 4 patients. The “Patients with "poor" or "nil" effect” value ([2]; i.m. 500 mg/day, of 33) was 4 patients, the “Patients with marked improvement of flexo-extension strength” value [2, 5] was 10 patients and the “Patients with marked improvement of flexo-extension strength (%)” value [2, 5] was 55.5%. The “Anaemia in blood counts” value (occult blood in faeces; end of experiment) was “did not reveal any cases of anaemia which could be considered pathological or at the most suspect”, the “Faecal occult blood: haematic loss disappeared” value (occult blood in faeces; [6]) was 1 case and the “Faecal occult blood: haematic loss reduced” value (occult blood in faeces; [6]) was 6 cases. The “Faecal occult blood: haematic loss slightly increased” value (occult blood in faeces; [6]) was 2 cases, the “Faecal occult blood: haematic loss unchanged” value (occult blood in faeces; [6]) was 5 cases and the “Faecal occult blood positive in pretreatment phase” value (occult blood in faeces; pretreatment (baseline)) was 14 subjects.

In the case of `COc1ccc2c(c1)c(CC(=O)O)c(C)n2C(=O)c1ccc(Cl)cc1` [indomethacine], the “Undesired side-effects (gastro-intestinal intolerance, ulceration) compared with phenyl-alkanoic acids” value (gastro-intestinal mucosa; known from the art) is listed as “also show these undesired side-effects in an even more pronounced form”.

With `CC(C)Cc1ccc(C(C)C(=O)O)cc1` (racemic) [Example 8, D,L-arginine salt of 2-(4-isobutylphenyl)-propionic acid] the “pH of aqueous solution” value (pH of aqueous solution) was “pH close to neutrality” and the “Solubility in water” value (Solubility) was “moderately soluble in water”.

For `CCCCC1C(=O)N(c2ccccc2)N(c2ccccc2)C1=O` [Phenyl-butazone, phenylbutazone], the “Undesired side-effects (gastro-intestinal intolerance, ulceration) compared with phenyl-alkanoic acids” value (gastro-intestinal mucosa; known from the art) is given as “also show these undesired side-effects in an even more pronounced form”, the “Pain threshold - carrageenin oedema” value ([3]; 0 hrs, control 101.7 ± 3.19) is given as 105.3 ± 3.03 g and the “Pain threshold - carrageenin oedema” value ([3]; 3 hrs, control 52.7 ± 2.00, **p = 0.01) is given as 122.7 ± 2.92 g. For the same compound, the “Pain threshold - carrageenin oedema” value ([3]; 5 hrs, control 51.3 ± 2.15, **p = 0.01) was 83.7 ± 4.04 g, the “Paw volume - carrageenin oedema” value ([4]; 0 hrs, control 1.16 ± 0.02) was 1.18 ± 0.02 mL and the “Paw volume, % variation referred to control” value ([4]; 3 hrs) was -25.4%. The “Paw volume, % variation referred to control” value ([4]; 4 hrs) was -23.6%, the “Paw volume - carrageenin oedema” value ([4]; 4 hrs, control 2.29 ± 0.05, **p = 0.01) was 1.75 ± 0.05 mL and the “Paw volume, % variation referred to control” value ([4]; 5 hrs) was -22.0%. The “Paw volume - carrageenin oedema” value ([4]; 5 hrs, control 2.36 ± 0.06, **p = 0.01) was 1.84 ± 0.05 mL.

In the case of `CC(C)Cc1ccc(CC(=O)O)cc1` [Example 14, D,L-arginine salt of 2-(4-isobutyl-phenyl)-acetic acid], the “pH of aqueous solution” value (pH of aqueous solution) is reported as “pH close to neutrality”, the “Solubility in water” value (Solubility) is reported as “moderately soluble in water” and the “Stability” value (Stability) is reported as “stable solution”.

In the case of `CC(=O)Oc1ccccc1C(=O)O` [aspirin], the “Undesired side-effects (gastro-intestinal intolerance, ulceration) compared with phenyl-alkanoic acids” value (gastro-intestinal mucosa; in vivo) is given as “also show these undesired side-effects in an even more pronounced form”.

With `CC(C)Cc1ccc(C(C)C(=O)O)cc1` (stereo not shown) [Example 9] the “pH of aqueous solution” value (pH of aqueous solution) was “analogous to those of the product obtained in Example 8” and the “Solubility in water” value (Solubility) was “analogous to those of the product obtained in Example 8”.

From patent publication US4279926A, “Method of relieving pain and treating inflammatory conditions in warm-blooded animals” (priority 1974, dated 1981)
